Source: PMC8580050, “Improvement of the antimicrobial potency, pharmacokinetic and pharmacodynamic properties of albicidin by incorporation of nitrogen atoms” (Chemical Science, 2021)
Converted amounts (≈) assume the structure as drawn. Like-named read-outs stand apart in the source and are kept apart here.

Assays:
[1] = system: S. aureus (ciprofloxacin susceptible clinical isolate); assay: MIC, extended panel; assay type: cell-based; details: Staphylococcus aureus
Experimental: (§1) 1.1.1 In vitro experiments
(§2) Determination of Minimal inhibitory concentrations (MIC)
(§3) Approved Standard M07-A9.1
(§4) CFU mL-1. […] Albicidin and […]
(§5) and serially diluted in DMSO (100%). […]
(§6) in 0.1 N HCL, respectively.
(§7) One row of each well plate served as a […]
(§8) sterility control (only MHB II-media). […]
(§9) adding 5 µL DMSO to several wells. […]
(§10) for growth inhibition by naked eye.
(§11) Microorganisms and Cell Cultures (DSMZ): […]
(§12) Dr. Werner (Robert-Koch-Institut, Wernigerode, Germany): […]
(§13) for the following 11 pathogenic isolates: […]

physchem = details: 20 °C, kinetic from dmso stock
[2] = system: P. aeruginosa (ciprofloxacin susceptible clinical isolate); assay: MIC, extended panel; assay type: cell-based, Pseudomonas aeruginosa; details: Pseudomonas aeruginosa
Experimental: as §1, §2, §3, §4, §5, §6, §7, §8, §9, §10, §11, §12, §13

[3] = system: E. faecium (ciprofloxacin resistant clinical isolate); assay: microbe, parasite or virus in culture; assay type: cell-based; details: Enterococcus faecium
Experimental: as §1, §2, §3, §4, §5, §6, §7, §8, §9, §10, §11, §12, §13

[4] = system: P. aeruginosa (ciprofloxacin resistant clinical isolate); assay: microbe, parasite or virus in culture; assay type: cell-based; details: Pseudomonas aeruginosa
Experimental: as §1, §2, §3, §4, §5, §6, §7, §8, §9, §10, §11, §12, §13

[5] = system: E. faecium (ciprofloxacin susceptible clinical isolate); assay: microbe, parasite or virus in culture; details: Enterococcus faecium
[6] = system: Salmonella Kentucky (ciprofloxacin resistant clinical isolate); assay: microbe, parasite or virus in culture; assay type: cell-based; details: Salmonella enterica
Experimental: as §1, §2, §3, §4, §5, §6, §7, §8, §9, §10, §11, §12

[7] = system: K. pneumoniae (ciprofloxacin resistant clinical isolate); assay: microbe, parasite or virus in culture; assay type: cell-based; details: Klebsiella pneumoniae
Experimental: as §1, §2, §3, §4, §5, §6, §7, §8, §9, §10, §11, §12

[8] = system: S. aureus (ciprofloxacin resistant clinical isolate); assay: microbe, parasite or virus in culture; assay type: cell-based, Staphylococcus aureus; details: Staphylococcus aureus
Experimental: as §1, §2, §3, §4, §5, §6, §7, §8, §9, §10, §11, §12, §13

[9] = system: A. baumannii (ciprofloxacin resistant isolate); assay: microbe, parasite or virus in culture; assay type: cell-based, Acinetobacter baumannii; details: Acinetobacter baumannii
Experimental: as §1, §2, §3, §4, §5, §6, §7, §8, §9, §10, §11, §12, §13

[10] = system: K. pneumoniae (ciprofloxacin susceptible clinical isolate); assay: MIC, extended panel; assay type: cell-based, Klebsiella pneumoniae; details: Klebsiella pneumoniae
Experimental: as §1, §2, §3, §4, §5, §6, §7, §8, §9, §10, §11, §12

[11] = system: Salmonella Kentucky (ciprofloxacin susceptible clinical isolate); assay: MIC, extended panel; assay type: cell-based; details: Salmonella enterica
Experimental: as §1, §2, §3, §4, §5, §6, §7, §8, §9, §10, §11, §12

[12] = system: E. coli (ciprofloxacin susceptible clinical isolate); assay: MIC, extended panel; assay type: cell-based; details: Escherichia coli
Experimental: as §1, §2, §3, §4, §5, §6, §7, §8, §9, §10, §11, §12

in vitro = details: plasma, pH 7.4
Experimental: Determination of plasma stability
Human and murine plasma aliquots (Sigma-Aldrich, Taufkirchen, Germany) were thawed and subsequently centrifuged at 3000 rpm for 10 min at 4°C. Resulting supernatant was diluted in the same volume of phosphate buffer (pH 7.4) to obtain a plasma concentration of 50% (v/v). Stock solutions of […]
concentration of 20 µM (5% DMSO). Following incubation at 37°C ice-cold methanol containing 30% […]
were centrifuged at 4000 rpm for 20 min at 4°C and 100 µL of supernatant were directly transferred to a fresh MS-vial. Samples were analyzed by LC/MS-MS experiments. Quantification of remaining compounds was performed by an external calibration curve of standard solutions in the range of […]

DNA gyrase = details: read-out: half maximum inhibitory concentration (IC50); cited from earlier work
[13] = system: E. coli (ciprofloxacin resistant clinical isolate); assay: microbe, parasite or virus in culture; assay type: cell-based, Escherichia coli; details: Escherichia coli
Experimental: as §1, §2, §3, §4, §5, §6, §7, §8, §9, §10, §11, §12

M. phlei DSM 750 = assay: MIC determination (broth microdilution); assay type: cell-based, Mycobacterium phlei; details: Mycolicibacterium phlei, DSM750; M. phlei DSM 750; read-out: MIC
Experimental: as §1, §2, §3, §4, §5, §6, §7, §8, §9, §10

M. luteus DSM1790 = assay: MIC determination (broth microdilution); assay type: cell-based, Micrococcus luteus; details: M. luteus DSM1790
Experimental: as §1, §2, §3, §4, §5, §6, §7, §8, §9, §10, §11

E. coli DSM 1116 = assay: MIC determination (broth microdilution); assay type: cell-based, Escherichia coli; details: Escherichia coli, DSM1116
Experimental: as §1, §2, §3, §4, §5, §6, §7, §8, §9, §10, §11

S. Typhimurium TA100 = assay: MIC determination (broth microdilution); assay type: cell-based, Salmonella typhimurium; details: Salmonella enterica; S. Typhimurium TA100; read-out: MIC
Experimental: as §1, §2, §3, §4, §5, §6, §7, §8, §9, §10, §11

E. coli DNA gyrase = target: T1, E. coli DNA gyrase (Escherichia coli, UniProt P0AES4+P0AES6); assay: E. coli gyrase supercoiling inhibition assay; assay type: biochemical; set-up: key: ↑: for stronger inhibition; ≈: for equal inhibition; ↓: for diminished inhibition compared to albicidin 1; details: constant concentration of 45 nM, compared to albicidin 1
T1 construct: purchased inspiralis Limited, Norwich, UK
Experimental: Escherichia coli Gyrase Supercoiling Inhibition Assay
loaded on an agarose gel.
2-15. […] Addition of DNA
All derivatives were tested at a concentration of […]

E. coli BW25113 = assay: MIC determination (broth microdilution); assay type: cell-based; details: Escherichia coli
Experimental: as §1, §2, §3, §4, §5, §6, §7, §8, §9, §10, §11

B. subtilis DSM 10 = assay: MIC determination (broth microdilution); assay type: cell-based; details: Bacillus subtilis, DSM10; B. subtilis DSM 10; read-out: MIC
Experimental: as §1, §2, §3, §4, §5, §6, §7, §8, §9, §10, §11

[14] = system: E. coli DSM 1116 + 50% Human Serum; assay: MIC determination in presence of 50% human serum; assay type: cell-based; details: Escherichia coli, DSM1116; E. coli DSM 1116 + 50% Human Serum; read-out: MIC
Text: This investigation was completed by assessment of the antibacterial activity in presence of human plasma (50%) (Table 1), since high plasma protein binding can severely impair antibacterial activity and thus efficacy.
as §1, §2, §3, §4, §5, §6, §7, §8, §9, §10, §11

[15] = Micrococcus luteus, read-out: MIC
[16] = E. coli DSM 1116, read-out: MIC

T1 sequence (P0AES4 whole entry, one chain of several): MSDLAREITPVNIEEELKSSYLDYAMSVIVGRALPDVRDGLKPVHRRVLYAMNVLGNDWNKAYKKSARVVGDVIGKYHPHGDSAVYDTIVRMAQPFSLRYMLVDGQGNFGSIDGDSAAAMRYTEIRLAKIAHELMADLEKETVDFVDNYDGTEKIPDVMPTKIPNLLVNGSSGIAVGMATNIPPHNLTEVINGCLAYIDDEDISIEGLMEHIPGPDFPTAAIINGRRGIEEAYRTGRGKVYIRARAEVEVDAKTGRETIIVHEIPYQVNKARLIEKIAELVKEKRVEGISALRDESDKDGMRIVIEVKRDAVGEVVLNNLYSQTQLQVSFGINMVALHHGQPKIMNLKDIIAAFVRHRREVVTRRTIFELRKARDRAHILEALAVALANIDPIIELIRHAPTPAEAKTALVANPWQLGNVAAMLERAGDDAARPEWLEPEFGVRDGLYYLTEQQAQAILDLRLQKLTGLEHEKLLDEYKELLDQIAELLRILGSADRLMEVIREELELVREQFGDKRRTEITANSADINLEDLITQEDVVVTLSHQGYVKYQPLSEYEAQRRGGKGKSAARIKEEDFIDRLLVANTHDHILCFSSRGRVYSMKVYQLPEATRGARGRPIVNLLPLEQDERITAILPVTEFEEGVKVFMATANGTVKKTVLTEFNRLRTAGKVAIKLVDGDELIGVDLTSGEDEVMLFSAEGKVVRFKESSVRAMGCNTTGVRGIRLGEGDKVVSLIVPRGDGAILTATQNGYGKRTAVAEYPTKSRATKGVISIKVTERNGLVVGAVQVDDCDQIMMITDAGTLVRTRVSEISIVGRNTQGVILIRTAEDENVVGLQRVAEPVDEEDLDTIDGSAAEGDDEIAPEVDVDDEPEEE

Structure (SMILES) | MIC (M. phlei DSM 750) [µg/mL] | MIC (M. luteus DSM1790; [15]) [µg/mL] | MIC (E. coli DSM 1116; [16]) [µg/mL] | MIC (S. Typhimurium TA100) [µg/mL] | E. coli gyrase inhibition (E. coli DNA gyrase) | MIC (E. coli BW25113) [µg/mL] | MIC (B. subtilis DSM 10) [µg/mL] | MIC [14] [µg/mL] | also measured
COc1c(NC(=O)c2ccc(NC(=O)c3ccc(NC(=O)[C@H](CC#N)NC(=O)c4ccc(NC(=O)/C(C)=C/c5ccc(O)cc5)cc4)cc3)c(OC)c2O)ccc(C(=O)O)c1O [Compound 1, albicidin] | – | – | – | – | – | – | – | – | MIC [1]: 2 µg/mL (≈ 2.37 µM); solubility at 20 h (physchem; pH 7.4, aqueous with cosolvent or surfactant or cyclodextrin): 5.53 µg/mL (≈ 6.56 µM); solubility kinetic at 20 h (physchem; pH 7.5, aqueous with cosolvent or surfactant or cyclodextrin): 5.53 µg/mL (≈ 6.56 µM); MIC [2]: 1 µg/mL (≈ 1.19 µM); MIC [3]: 16 µg/mL (≈ 19 µM); MIC [4]: 2 µg/mL (≈ 2.37 µM); MIC [5]: 0.25 µg/mL (≈ 0.297 µM); MIC [6]: 0.25 µg/mL (≈ 0.297 µM); MIC [7]: ≥ 128 µg/mL; MIC [8]: 4 µg/mL (≈ 4.75 µM); MIC [9]: 2 µg/mL (≈ 2.37 µM); MIC [10]: ≥ 128 µg/mL; MIC [11]: 0.063 µg/mL (≈ 0.0747 µM); MIC [12]: 0.031 µg/mL (≈ 0.0368 µM); half-life at 20 µM (in vitro; human): 60 min; half-life at 20 µM (in vitro; mouse): 30 min; IC50 (DNA gyrase): 40 nM; MIC [13]: 0.125 µg/mL (≈ 0.148 µM)
COc1c(NC(=O)c2ccc(NC(=O)c3ccc(NC(=O)[C@H](Cc4c[nH]nn4)NC(=O)c4ccc(NC(=O)/C(C)=C/c5ccccn5)cc4)cc3)c(OC)c2O)ccc(C(=O)O)c1O [Compound 3] | 64 (≈ 73.6 µM) | 32 (≈ 36.8 µM) | 0.25 (≈ 0.287 µM) | 0.125 (≈ 0.144 µM) | ↓ | 0.5 (≈ 0.575 µM) | 4 (≈ 4.6 µM) | 8 | –
COc1c(NC(=O)c2ccc(NC(=O)c3ccc(NC(=O)[C@H](Cc4c[nH]nn4)NC(=O)c4ccc(NC(=O)/C(C)=C/c5cccnc5)cc4)cc3)c(OC)c2O)ccc(C(=O)O)c1O [Compound 4] | 32 (≈ 36.8 µM) | 32 (≈ 36.8 µM) | – | 0.125 (≈ 0.144 µM) | ↓ | 0.5 (≈ 0.575 µM) | 2 (≈ 2.3 µM) | 8 | MIC (E. coli DSM 1116): 0.125 µg/mL (≈ 0.144 µM)
COc1c(NC(=O)c2ccc(NC(=O)c3ccc(NC(=O)[C@H](Cc4c[nH]nn4)NC(=O)c4ccc(NC(=O)/C(C)=C/c5ccc(O)cc5)cn4)cc3)c(OC)c2O)ccc(C(=O)O)c1O [Compound 5] | 4 (≈ 4.52 µM) | 0.5 (≈ 0.564 µM) | 0.031 (≈ 0.035 µM) | 0.031 (≈ 0.035 µM) | ↑ | 0.031 (≈ 0.035 µM) | 0.25 (≈ 0.282 µM) | 2 | –
COc1c(NC(=O)c2ccc(NC(=O)c3ccc(NC(=O)[C@H](Cc4c[nH]nn4)NC(=O)c4ccc(NC(=O)/C(C)=C/c5ccc(O)cc5)nc4)cc3)c(OC)c2O)ccc(C(=O)O)c1O [Compound 6] | 4 (≈ 4.52 µM) | 4 (≈ 4.52 µM) | 0.016 (≈ 0.0181 µM) | 0.016 (≈ 0.0181 µM) | ↓ | 0.063 (≈ 0.0711 µM) | 0.5 (≈ 0.564 µM) | 1 | –
COc1c(NC(=O)c2ccc(NC(=O)c3ccc(NC(=O)[C@H](Cc4c[nH]nn4)NC(=O)c4ccc(NC(=O)/C(C)=C/c5ccc(O)cc5)cc4)cc3)cn2)ccc(C(=O)O)c1O [Compound 9] | 1 (≈ 1.19 µM) | 1 (≈ 1.19 µM) | 0.031 (≈ 0.0369 µM) | 0.031 (≈ 0.0369 µM) | ↓ | 0.031 (≈ 0.0369 µM) | 1 (≈ 1.19 µM) | ≥ 8 | –
COc1c(NC(=O)c2ccc(NC(=O)c3ccc(NC(=O)[C@H](Cc4c[nH]nn4)NC(=O)c4ccc(NC(=O)/C(C)=C/c5ccc(O)cc5)cc4)cc3)nc2)ccc(C(=O)O)c1O [Compound 10] | 2 (≈ 2.38 µM) | 32 (≈ 38.1 µM) | 0.063 (≈ 0.075 µM) | 0.016 (≈ 0.0191 µM) | ↓ | 0.063 (≈ 0.075 µM) | 2 (≈ 2.38 µM) | 2 | MIC (M. luteus DSM1790): 32.0 µg/mL (≈ 38.1 µM)
